Measurements: ChEMBL document CHEMBL4385640, “Synthesis, SAR study, and biological evaluation of novel 2,3-dihydro-1H-imidazo[1,2-a]benzimidazole derivatives as phosphodiesterase 10A inhibitors” (Bioorg Med Chem, 2019)
In brackets after ≈: the same amount, converted by molar mass. Activity calls are given as the source filed them. The rule behind the calls is not given here.

What was measured:
[1] = target: cAMP and cAMP-inhibited cGMP 3',5'-cyclic phosphodiesterase 10A (Homo sapiens, UniProt Q9Y233); assay: Inhibition of human PDE10A using cAMP as substrate preincubated for 30 mins followed by substrate addition and measured after 60 mins by HTRF detection assay
Chain of cAMP and cAMP-inhibited cGMP 3',5'-cyclic phosphodiesterase 10A (Q9Y233 whole entry): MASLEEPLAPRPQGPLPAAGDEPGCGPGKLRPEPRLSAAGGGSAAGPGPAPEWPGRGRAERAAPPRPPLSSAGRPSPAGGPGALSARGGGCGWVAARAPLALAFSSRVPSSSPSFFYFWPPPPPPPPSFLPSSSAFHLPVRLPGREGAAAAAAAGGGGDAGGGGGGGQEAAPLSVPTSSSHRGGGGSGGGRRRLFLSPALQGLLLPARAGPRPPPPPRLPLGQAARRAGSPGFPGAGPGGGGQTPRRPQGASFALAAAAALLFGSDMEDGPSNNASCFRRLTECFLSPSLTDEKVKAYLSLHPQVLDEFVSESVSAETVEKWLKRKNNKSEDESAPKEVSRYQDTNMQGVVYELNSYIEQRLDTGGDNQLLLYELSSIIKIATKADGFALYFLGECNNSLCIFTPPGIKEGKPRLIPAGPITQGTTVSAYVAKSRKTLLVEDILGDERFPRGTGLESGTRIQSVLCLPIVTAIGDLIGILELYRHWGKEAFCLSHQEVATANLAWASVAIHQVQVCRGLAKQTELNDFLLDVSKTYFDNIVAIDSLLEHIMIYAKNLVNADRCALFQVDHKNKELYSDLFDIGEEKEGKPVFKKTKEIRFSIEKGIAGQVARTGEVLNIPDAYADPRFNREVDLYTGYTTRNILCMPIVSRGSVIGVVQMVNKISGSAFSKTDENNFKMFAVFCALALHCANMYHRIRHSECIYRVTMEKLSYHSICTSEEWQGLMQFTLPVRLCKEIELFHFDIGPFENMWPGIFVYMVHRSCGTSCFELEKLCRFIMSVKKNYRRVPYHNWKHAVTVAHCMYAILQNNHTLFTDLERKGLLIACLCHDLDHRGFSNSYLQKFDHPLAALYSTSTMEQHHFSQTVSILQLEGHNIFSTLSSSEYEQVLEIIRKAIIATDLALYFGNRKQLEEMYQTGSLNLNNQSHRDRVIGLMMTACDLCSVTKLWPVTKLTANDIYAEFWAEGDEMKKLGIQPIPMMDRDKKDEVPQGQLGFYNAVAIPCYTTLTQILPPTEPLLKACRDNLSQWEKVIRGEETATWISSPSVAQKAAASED

LLC-PK1 = assay: Ratio of efflux ratio of LLC-PK1 cells expressing human MDR1 at 1 uM to efflux ratio of wild type LLC-PK1 cells at 1 uM; assay type: ADME, cell-based, Sus scrofa; conditions: pig, llc-pk1, 1 µM
[2] = Lipophilicity, logD of the compound at pH 7.4; assay type: physicochemical; conditions: buffer
[3] = Drug uptake in mouse brain at 0.1 mg/kg, po measured after 1 hr by LC-MS/MS analysis; assay type: ADME, organism-based
[4] = Apparent permeability in wild type pig LLC-PK1 cells at 1 uM incubated for 3 hrs by […] LC-MS/MS analysis; assay type: ADME, cell-based, Sus scrofa
[5] = Drug uptake in mouse plasma at 0.1 mg/kg, po measured after 1 hr by LC-MS/MS analysis; assay type: ADME, organism-based
CYP2C19 = CYP2C19 (Homo sapiens, UniProt P33261); assay: Inhibition of CYP2C19 in human liver microsomes assessed as enzyme residual activity incubated for 30 mins by LC-MS/MS analysis relative to control; assay type: ADME; conditions: read-out: Activity
Chain of CYP2C19 (P33261 whole entry): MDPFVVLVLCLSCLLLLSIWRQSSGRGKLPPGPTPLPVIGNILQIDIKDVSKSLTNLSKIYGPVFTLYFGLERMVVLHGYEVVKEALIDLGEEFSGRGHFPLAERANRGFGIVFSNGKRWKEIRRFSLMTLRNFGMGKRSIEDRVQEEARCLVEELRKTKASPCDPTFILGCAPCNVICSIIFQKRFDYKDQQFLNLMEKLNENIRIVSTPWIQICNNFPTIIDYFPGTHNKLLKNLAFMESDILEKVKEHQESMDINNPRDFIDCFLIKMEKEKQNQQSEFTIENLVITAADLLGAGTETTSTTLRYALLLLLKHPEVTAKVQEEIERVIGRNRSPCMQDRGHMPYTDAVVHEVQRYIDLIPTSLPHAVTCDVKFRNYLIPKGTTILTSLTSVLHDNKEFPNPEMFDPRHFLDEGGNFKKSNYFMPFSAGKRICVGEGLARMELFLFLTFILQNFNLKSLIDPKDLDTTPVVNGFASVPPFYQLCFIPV

CYP2C9 = CYP2C9 (Homo sapiens, UniProt P11712); assay: Inhibition of CYP2C9 in human liver microsomes assessed as enzyme residual activity incubated for 30 mins by LC-MS/MS analysis relative to control; assay type: ADME; conditions: read-out: Activity
Chain of CYP2C9 (P11712 whole entry): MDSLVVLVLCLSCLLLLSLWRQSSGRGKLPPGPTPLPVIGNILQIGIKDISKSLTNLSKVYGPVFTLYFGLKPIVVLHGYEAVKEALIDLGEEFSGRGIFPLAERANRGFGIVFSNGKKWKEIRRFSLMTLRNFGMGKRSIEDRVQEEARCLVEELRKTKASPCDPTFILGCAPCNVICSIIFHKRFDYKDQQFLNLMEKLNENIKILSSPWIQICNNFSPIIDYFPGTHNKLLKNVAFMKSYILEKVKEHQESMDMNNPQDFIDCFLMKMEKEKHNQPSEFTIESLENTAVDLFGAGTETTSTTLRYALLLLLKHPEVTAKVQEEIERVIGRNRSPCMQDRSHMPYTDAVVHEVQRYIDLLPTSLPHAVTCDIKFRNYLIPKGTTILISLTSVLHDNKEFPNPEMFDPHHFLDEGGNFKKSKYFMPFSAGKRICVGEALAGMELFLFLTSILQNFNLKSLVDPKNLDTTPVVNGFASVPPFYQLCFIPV

CYP3A4 = CYP3A4 (Homo sapiens, UniProt P08684); assay: Inhibition of CYP3A4 in human liver microsomes assessed as enzyme residual activity incubated for 30 mins by LC-MS/MS analysis relative to control; assay type: ADME; conditions: read-out: Activity
Chain of CYP3A4 (P08684 whole entry): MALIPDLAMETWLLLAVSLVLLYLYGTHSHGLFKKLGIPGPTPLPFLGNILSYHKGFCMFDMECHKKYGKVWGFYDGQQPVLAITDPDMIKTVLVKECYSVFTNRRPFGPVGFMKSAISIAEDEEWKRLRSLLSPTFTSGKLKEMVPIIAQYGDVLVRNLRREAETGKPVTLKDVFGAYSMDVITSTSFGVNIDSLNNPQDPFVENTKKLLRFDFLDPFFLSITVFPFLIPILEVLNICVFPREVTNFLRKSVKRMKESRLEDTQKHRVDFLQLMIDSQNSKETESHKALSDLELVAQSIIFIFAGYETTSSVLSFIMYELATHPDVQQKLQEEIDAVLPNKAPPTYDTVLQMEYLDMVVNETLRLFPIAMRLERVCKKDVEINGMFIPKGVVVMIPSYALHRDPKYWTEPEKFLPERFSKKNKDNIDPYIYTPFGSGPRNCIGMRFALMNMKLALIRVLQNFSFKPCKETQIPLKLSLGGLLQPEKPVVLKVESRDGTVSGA

CYP2D6 = CYP2D6 (Homo sapiens, UniProt P10635); assay: Inhibition of CYP2D6 in human liver microsomes assessed as enzyme residual activity incubated for 30 mins by LC-MS/MS analysis relative to control; assay type: ADME; conditions: read-out: Activity
Chain of CYP2D6 (P10635 whole entry): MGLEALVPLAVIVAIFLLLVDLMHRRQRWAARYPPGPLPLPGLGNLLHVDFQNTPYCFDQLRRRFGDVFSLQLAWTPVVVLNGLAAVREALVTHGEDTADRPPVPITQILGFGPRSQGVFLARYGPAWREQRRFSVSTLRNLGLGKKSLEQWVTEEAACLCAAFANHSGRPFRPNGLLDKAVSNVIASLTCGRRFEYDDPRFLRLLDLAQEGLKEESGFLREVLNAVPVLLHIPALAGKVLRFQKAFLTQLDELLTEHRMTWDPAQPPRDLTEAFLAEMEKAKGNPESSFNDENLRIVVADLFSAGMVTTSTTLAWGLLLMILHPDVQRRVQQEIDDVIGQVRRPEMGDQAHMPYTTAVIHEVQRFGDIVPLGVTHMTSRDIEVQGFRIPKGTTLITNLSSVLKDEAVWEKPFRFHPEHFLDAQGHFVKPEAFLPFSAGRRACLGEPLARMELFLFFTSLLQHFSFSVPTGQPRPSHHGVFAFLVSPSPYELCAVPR

[6] = Toxicity in ICR mouse assessed as induction of catalepsy up to 100 mg/kg, po treated for 60 mins and measured up to 120 secs by bar test; assay type: organism-based; conditions: in vivo
[7] = Total brain to plasma partition coefficient, Kp in mouse at 0.1 mg/kg, po measured after 1 hr by LC-MS/MS analysis; assay type: ADME, organism-based
[8] = Intrinsic clearance in mouse liver microsomes by LC-MS/MS analysis; assay type: ADME, Microsome; conditions: read-out: CLH
[9] = Intrinsic clearance in human liver microsomes by LC-MS/MS analysis; assay type: ADME, Microsome
Mus musculus [10] = assay: Effect on mean number of arm entries in ddY mouse at 0.03 to 0.3 mg/kg, po pretreated 40 mins before MK-801 dosing and measured after 20 mins by Y-maze test; assay type: organism-based; conditions: in vivo
CYP2C8 = target: T1, CYP2C8 (Homo sapiens, UniProt P10632); assay: Inhibition of CYP2C8 in human liver microsomes assessed as enzyme residual activity incubated for 30 mins by LC-MS/MS analysis relative to control; assay type: ADME; conditions: read-out: Activity
T1 sequence (P10632 whole entry): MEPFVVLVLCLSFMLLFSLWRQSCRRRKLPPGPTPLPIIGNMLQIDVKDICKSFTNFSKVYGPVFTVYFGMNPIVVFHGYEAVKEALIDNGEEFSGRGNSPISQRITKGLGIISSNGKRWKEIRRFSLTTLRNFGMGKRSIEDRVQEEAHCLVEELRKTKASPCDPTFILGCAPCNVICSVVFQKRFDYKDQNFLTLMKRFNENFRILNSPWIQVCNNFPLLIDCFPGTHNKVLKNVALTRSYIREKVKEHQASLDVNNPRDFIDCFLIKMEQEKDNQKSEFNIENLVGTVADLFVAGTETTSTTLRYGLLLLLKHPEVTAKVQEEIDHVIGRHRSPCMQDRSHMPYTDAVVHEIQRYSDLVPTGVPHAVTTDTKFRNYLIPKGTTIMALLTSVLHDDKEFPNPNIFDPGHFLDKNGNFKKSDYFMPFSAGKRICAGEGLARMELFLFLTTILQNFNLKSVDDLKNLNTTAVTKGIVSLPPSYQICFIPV

CYP1A2 = target: T2, CYP1A2 (Homo sapiens, UniProt P05177); assay: Inhibition of CYP1A2 in human liver microsomes assessed as enzyme residual activity incubated for 30 mins by LC-MS/MS analysis relative to control; assay type: ADME; conditions: read-out: Activity
T2 sequence (P05177 whole entry): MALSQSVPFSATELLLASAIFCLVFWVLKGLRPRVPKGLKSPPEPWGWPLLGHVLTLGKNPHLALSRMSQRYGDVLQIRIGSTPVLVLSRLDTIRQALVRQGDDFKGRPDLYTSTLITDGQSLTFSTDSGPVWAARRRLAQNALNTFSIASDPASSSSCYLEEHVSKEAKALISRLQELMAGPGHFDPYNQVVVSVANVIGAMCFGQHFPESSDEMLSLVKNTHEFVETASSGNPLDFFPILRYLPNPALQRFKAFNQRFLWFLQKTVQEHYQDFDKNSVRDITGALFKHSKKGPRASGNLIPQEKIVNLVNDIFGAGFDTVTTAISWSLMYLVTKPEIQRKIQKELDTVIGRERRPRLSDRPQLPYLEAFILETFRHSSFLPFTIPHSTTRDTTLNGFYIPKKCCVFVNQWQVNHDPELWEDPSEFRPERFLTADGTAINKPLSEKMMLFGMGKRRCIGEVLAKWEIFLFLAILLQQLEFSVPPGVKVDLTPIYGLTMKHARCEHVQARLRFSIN

Mus musculus [11] = assay: Antipsychotic activity in ICR mouse assessed as inhibition of Phencyclidine-induced hyperlocomotion pretreated orally followed by Phencyclidine injection and measured after 60 mins; assay type: functional, organism-based
Mus musculus [12] = assay: Effect on mean number of arm entries in ddY mouse at 1 mg/kg, po pretreated 40 mins before MK-801 dosing and measured after 20 mins by Y-maze test; assay type: organism-based; conditions: in vivo
Mus musculus [13] = assay: Cognition enhancement activity in ddY mouse assessed as suppression of MK-801-induced working memory deficit by measuring decrease in spontaneous alternation behavior at 0.1 to 0.3 mg/kg, po pretreated 40 mins before MK-801 dosing and measured after 20 mins by Y-maze test; assay type: functional, organism-based
[14] = Solubility of the compound in pH 6.8 JP2 buffer; assay type: physicochemical

Compound | IC50 [1] [µM] | Ratio (LLC-PK1) | other results
Cc1cc(C)n2nc(CC(=O)N3CC(C)n4c3nc3ccccc34)nc2n1 (stereo unspecified) | 0.292 | – | –
Cc1cc(C)n2nc(CC(=O)N3CCn4c3nc3cccc(C)c34)nc2n1 | 0.279 | – | –
Cc1cc(C)n2nc(CCNc3nc4ccccc4[nH]3)nc2n1 | 0.105 | – | –
Cc1cc(C)n2nc(CCNc3ccc4ccccc4n3)nc2n1 | 0.294 | – | –
Cc1cc(C)n2cc(CC(=O)N3CCn4c3nc3ccccc34)nc2n1 | 0.275 | 1 | –
Cc1cc(C)n2nc(CC(=O)N3CCn4c3nc3c(C)cccc34)nc2n1 | > 10 | – | –
Cc1cc(C)n2nc(CCN3CCn4c3nc3ccccc34)nc2n1 | 0.138 | 3.6 | Papp at 3 h, 1 µM [4]: 19.2 ×10⁻⁶ cm/s
Cc1cc(C)n2nc(CC(=O)N3CCCn4c3nc3ccccc34)nc2n1 | 1.48 | – | –
Cc1cc(C)n2nc(CCc3ccn4nc5ccccc5c4n3)nc2n1 | 0.078 | – | –
Cc1ccc2nc3n(c2c1)CCN3C(=O)Cc1nc2nc(C)cc(C)n2n1 | 0.416 | – | –
Cc1cc(C)n2nc(CCNc3nc4ccccc4n3C)nc2n1 | 0.088 | – | –
Cc1cc(C)n2nc(CC(=O)N3CCn4c3nc3ccccc34)nc2c1 | 0.135 | 1.2 | –
Cc1cc(C)n2nc(CC(=O)N3c4nc5ccccc5n4C[C@H]3c3ccccc3)nc2n1 | 1.92 | – | –
Cc1cc(C)n2nc(CCNc3cnc4ccccc4n3)nc2n1 | 1.22 | – | –
Cc1cc(C)n2nc(CCNc3ncc4ccccc4n3)nc2n1 | 2.08 | – | –
Cc1ccc2c(c1)nc1n2CCN1C(=O)Cc1nc2nc(C)cc(C)n2n1 | 0.441 | – | –

Now those with a lower IC50 [1], led by results:

IC50 [1] [µM] | Ratio (LLC-PK1) | Compound | other results
0.044 | 1.3 | Cc1ncc(C)n2nc(CC(=O)N3CCn4c3nc3ccccc34)nc12 | –
0.002 | 1.8 | Cc1cc(C)n2nc(CCc3cc(O)n4nc5ccccc5c4n3)nc2n1 | logD [2]: 0.3; Drug uptake ([3]; in vivo, 1 h): Not Active; Papp at 3 h, 1 µM [4]: 3.2 ×10⁻⁶ cm/s; concentration at 1 h [5]: 0.59 ng/mL
0.028 | 2.4 | Cc1cc(C)n2nc(CC(=O)N3c4nc5ccccc5n4C[C@@H]3C)nc2n1 | –
0.069 | 2.4 | Cc1cc(C)n2nc(CC(=O)N3c4nc5ccccc5n4CC3C)nc2n1 (racemic) | –
0.0084 | 1.2 | Cc1ncc(C)n2nc(CC(=O)N3c4nc5ccccc5n4C[C@@H]3C)nc12 | logD [2]: 2; activity at 0.5 h (CYP2C19): 90%; activity at 0.5 h (CYP2C9): 96%; concentration at 1 h ([3]; brain, read-out: Drug uptake): 2.2 ng/g; activity at 0.5 h (CYP3A4): 90%; activity at 0.5 h (CYP2D6): 102%; Papp at 3 h, 1 µM [4]: 27.5 ×10⁻⁶ cm/s; Activity [6]: Non-Toxic; Kp at 1 h [7]: 2.3; CLint scaled [8]: 175 mL/min/kg; CLH [9]: Stable; Activity (Mus musculus [10]): Non-Toxic; activity at 0.5 h (CYP2C8): 99%; activity at 0.5 h (CYP1A2): 98%; Activity (Mus musculus [11]): Dose-dependent effect; Activity (Mus musculus [12]): Toxic; Activity (Mus musculus [13]): Active; solubility [14]: 100 µM (≈ 36.1 µg/mL); concentration at 1 h [5]: 0.91 ng/mL
0.074 | 2.1 | Cc1cc(C)n2nc(CC(=O)N3c4nc5ccccc5n4CC3(C)C)nc2n1 | –
0.052 | 2.3 | Cc1cc(C)n2nc(CC(=O)N3CCn4c3nc3ccccc34)nc2n1 | Papp at 3 h, 1 µM [4]: 16.8 ×10⁻⁶ cm/s
0.075 | 3.8 | Cc1cc(C)n2nc(CC(=O)N3c4nc5ccccc5n4C[C@@H]3c3ccccc3)nc2n1 | –
0.0029 | – | Cc1cc(C)n2nc(CCc3cc(O)n4nc5ncccc5c4n3)nc2n1 | –
